ChEMBL document CHEMBL1140140, “4-[3-(4-cyclopropanecarbonylpiperazine-1-carbonyl)-4-fluorobenzyl]-2H-phthalazin-1-one: a novel bioavailable inhibitor of poly(ADP-ribose) polymerase-1” (J Med Chem, 2008)
Converted amounts (≈) assume the structure as drawn. The source made the active and inactive calls. The calls are words filed in the database; no cut-off is given here.

Experiments:
[1] = target: Poly [ADP-ribose] polymerase 1 (Homo sapiens, UniProt P09874)
[2] = system: HeLa; assay: Potentiation factor, ratio of IC50 for methyl methanesulfonate to IC50 for methyl methanesulfonate with 200 nM drug for inhibition of human HeLa B cells
[3] = Plasma concentration in mouse at 10 mg/kg, po after 30 mins; assay type: ADME, organism-based; design: dose 10 mg/kg, route oral
[4] = Plasma concentration in mouse at 10 mg/kg, po after 60 mins; assay type: ADME, organism-based; design: dose 10 mg/kg, route oral
[5] = Half life in rat at 15 mg/kg, iv and po; assay type: ADME, organism-based; design: dose 15 mg/kg, route oral; conditions: in vivo
[6] = system: Rattus norvegicus; assay: AUC (0 to infinity) in rat at 15 mg/kg, iv and po; assay type: ADME, organism-based, Plasma; design: dose 15 mg/kg, route oral; conditions: in vivo
[7] = system: Rattus norvegicus; assay: Volume of distribution in rat at 15 mg/kg, iv and po; assay type: ADME, organism-based; design: dose 15 mg/kg, route oral; conditions: in vivo
[8] = Oral bioavailability in rat at 15 mg/kg, po; assay type: ADME, organism-based; conditions: in vivo
[9] = Solubility of compound in 0.1 M phosphate buffer after 24 hrs by HPLC-UV method; assay type: physicochemical
[10] = system: SW-620; assay: Antitumor activity in human SW620 cells xenografted mouse assessed as days to double the relative tumor volume at 50 mg/kg, po once daily for 5 consecutive days; assay type: functional
[11] = system: Mus musculus; assay: Toxicity in human SW620 cells xenografted mouse assessed as maximum mean body weight loss after 3 days; assay type: organism-based, SW-620; conditions: in vivo, 72 h
[12] = Half life in dog at 2.5 mg/kg, iv and 10 mg/kg, po; assay type: ADME, organism-based, Canis lupus familiaris; conditions: in vivo
[13] = Clearance in dog at 2.5 mg/kg, iv and 10 mg/kg, po; assay type: ADME, organism-based, Canis lupus familiaris; conditions: in vivo
[14] = system: Canis familiaris; assay: AUC (0 to infinity) in dog at 2.5 mg/kg, iv and 10 mg/kg, po; assay type: ADME, organism-based, Canis lupus familiaris, Plasma; conditions: in vivo
[15] = Volume of distribution in dog at 2.5 mg/kg, iv and 10 mg/kg, po; assay type: ADME, organism-based, Canis lupus familiaris; conditions: in vivo
[16] = Oral bioavailability in dog at 10 mg/kg, po; assay type: ADME, organism-based, Canis lupus familiaris; conditions: in vivo
[17] = system: SW-620; assay: Potentiation of methyl methanesulfonate-induced growth inhibition of human SW620 cells after 4 days by sulforhodamine B assay; assay type: functional, cell-based
[18] = organism: Homo sapiens; assay: Cytotoxicity against BRCA1-deficient human […] cells upto 4 uM after 7 to 14 days by clonogenic assay; assay type: functional, cell-based
[19] = system: HCC1937; assay: Cytotoxicity against BRCA1-deficient human HCC1937 cells upto 4 uM after 7 to 14 days by clonogenic assay; assay type: functional, cell-based

Chain of Poly [ADP-ribose] polymerase 1 (P09874 whole entry): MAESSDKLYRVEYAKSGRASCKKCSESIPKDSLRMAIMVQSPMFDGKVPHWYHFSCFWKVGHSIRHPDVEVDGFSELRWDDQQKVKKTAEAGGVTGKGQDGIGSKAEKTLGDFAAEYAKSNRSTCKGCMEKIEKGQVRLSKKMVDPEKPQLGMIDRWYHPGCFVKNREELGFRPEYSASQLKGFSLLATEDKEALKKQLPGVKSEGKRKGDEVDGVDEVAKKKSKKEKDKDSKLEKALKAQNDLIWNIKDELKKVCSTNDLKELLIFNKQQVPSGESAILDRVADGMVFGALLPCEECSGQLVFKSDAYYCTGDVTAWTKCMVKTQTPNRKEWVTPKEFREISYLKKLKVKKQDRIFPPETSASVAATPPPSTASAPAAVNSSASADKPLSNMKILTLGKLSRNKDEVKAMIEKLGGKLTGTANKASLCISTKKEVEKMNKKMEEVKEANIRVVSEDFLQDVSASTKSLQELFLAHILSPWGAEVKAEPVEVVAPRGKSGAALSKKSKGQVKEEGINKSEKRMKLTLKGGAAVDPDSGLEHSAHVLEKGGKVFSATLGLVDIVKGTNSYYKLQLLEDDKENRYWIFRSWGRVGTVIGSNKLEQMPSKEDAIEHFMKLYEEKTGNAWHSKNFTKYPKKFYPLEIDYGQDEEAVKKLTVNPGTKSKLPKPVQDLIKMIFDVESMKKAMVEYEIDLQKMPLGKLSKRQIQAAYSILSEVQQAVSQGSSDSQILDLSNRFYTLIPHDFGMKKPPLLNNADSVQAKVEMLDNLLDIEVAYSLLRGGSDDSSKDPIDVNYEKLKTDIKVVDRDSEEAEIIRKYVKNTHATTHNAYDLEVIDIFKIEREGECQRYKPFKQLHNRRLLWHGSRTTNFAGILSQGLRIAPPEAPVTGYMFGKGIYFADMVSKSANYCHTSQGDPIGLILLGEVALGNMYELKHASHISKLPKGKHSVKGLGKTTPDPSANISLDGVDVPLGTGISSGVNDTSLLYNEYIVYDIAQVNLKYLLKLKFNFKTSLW

Row | Compound | IC50 [1] [nM] | PF50 [2] | further results
1 | O=C(c1cccc(Cc2n[nH]c(=O)c3ccccc23)c1)N1CCCN(CCO)CC1 | 18 | 5.4 | 
2 | O=C(c1cc(Cc2n[nH]c(=O)c3ccccc23)ccc1F)N1CCN(c2ncccn2)CC1 | 3 | >40 | 
3 | O=C(c1cc(Cc2n[nH]c(=O)c3ccccc23)ccc1F)N1CCCN(CCO)CC1 |  | 18 | 
4 | O=C(c1cccc(Cc2n[nH]c(=O)c3ccccc23)c1)N1CCN(c2ccccn2)CC1 | 10 | 24.3 | 
5 | O=C(c1cccc(Cc2n[nH]c(=O)c3ccccc23)c1)N1CCN(C(=O)N2CCOCC2)CC1 | 8 | 2.3 | 
6 | O=C(c1cc(Cc2n[nH]c(=O)c3ccccc23)ccc1F)N1CCCNCC1 |  | 12.6 | 
7 | CC(=O)N1CCCN(C(=O)c2cc(Cc3n[nH]c(=O)c4ccccc34)ccc2F)CC1 | 12 | 3.7 | 
8 | O=C(c1ccccc1)N1CCN(C(=O)c2cc(Cc3n[nH]c(=O)c4ccccc34)ccc2F)CC1 | 6 | 8.2 | 
9 | CN1CCN(C(=O)c2cc(Cc3n[nH]c(=O)c4ccccc34)ccc2F)CC1 | 13 | 2.5 | 
10 | O=C(c1cc(Cc2n[nH]c(=O)c3ccccc23)ccc1F)N1CCN(C(=O)C2CCCCC2)CC1 | 15 | 11.1 | 
11 | CCN1CCN(C(=O)c2cc(Cc3n[nH]c(=O)c4ccccc34)ccc2F)CC1 | 6 | 7.7 | 
12 | O=C(c1cc(Cc2n[nH]c(=O)c3ccccc23)ccc1F)N1CCN(CC2CC2)CC1 |  | 6.5 | 
13 | CCC(=O)N1CCN(C(=O)c2cc(Cc3n[nH]c(=O)c4ccccc34)ccc2F)CC1 | 5 | 24.4 | concentration at 0.5 h [3]: 670 ng/mL; concentration at 1 h [4]: 300 ng/mL; half-life [5]: 55 min; AUC [6]: 423 µg/min/mL; Vd [7]: 0.91 L/kg; bioavailability [8]: 40%
14 | O=C(c1cc(Cc2n[nH]c(=O)c3ccccc23)ccc1F)N1CCN(C(=O)C2CCCC2)CC1 | 2 | 11.8 | 
15 | O=C(c1ccccc1)N1CCN(C(=O)c2cccc(Cc3n[nH]c(=O)c4ccccc34)c2)CC1 | 11 | 7.2 | 
16 | CCS(=O)(=O)N1CCN(C(=O)c2cc(Cc3n[nH]c(=O)c4ccccc34)ccc2F)CC1 | 8 | 4.9 | 
17 | CN1CCN(C(=O)c2cccc(Cc3n[nH]c(=O)c4ccccc34)c2)CC1 | 88 | 1.02 | 
18 | CCCCN1CCN(C(=O)c2cc(Cc3n[nH]c(=O)c4ccccc34)ccc2F)CC1 | 5 | 6.4 | 
19 | O=C(c1cccc(Cc2n[nH]c(=O)c3ccccc23)c1)N1CCNCC1 |  | 3.7 | 
20 | CCCN1CCN(C(=O)c2cc(Cc3n[nH]c(=O)c4ccccc34)ccc2F)CC1 | 6 | 7.3 | 

Row | Compound | IC50 [1] [nM] | PF50 [2] | further results
21 | O=C(c1cccc(Cc2n[nH]c(=O)c3ccccc23)c1)N1CCCN(Cc2ccccc2)CC1 | 18 | 2.2 | 
22 | O=C(c1cccc(Cc2n[nH]c(=O)c3ccccc23)c1)N1CCN(c2ncccn2)CC1 | 2 | >40 | solubility at 24 h [9]: 1 µg/mL (≈ 2.34 µM); concentration at 0.5 h [3]: 300 ng/mL; concentration at 1 h [4]: 140 ng/mL
23 | O=C(c1cc(Cc2n[nH]c(=O)c3ccccc23)ccc1F)N1CCCN(C(=O)C2CC2)CC1 | 12 | 4.2 | 
24 | O=C(c1cccc(Cc2n[nH]c(=O)c3ccccc23)c1)N1CCCN(C(=O)N2CCOCC2)CC1 | 20 | 1.4 | 
25 | O=C(c1cc(Cc2n[nH]c(=O)c3ccccc23)ccc1F)N1CCCN(C(=O)N2CCOCC2)CC1 | 8 | 2.5 | 
26 | O=C(c1cc(Cc2n[nH]c(=O)c3ccccc23)ccc1F)N1CCN(C(=O)C2CCOC2)CC1 (configuration not stated) | 2 | 29.8 | concentration at 0.5 h [3]: 160 ng/mL; concentration at 1 h [4]: 150 ng/mL
27 | O=C(c1cc(Cc2n[nH]c(=O)c3ccccc23)ccc1F)N1CCN(C(=O)N2CCOCC2)CC1 |  | 8.4 | 
28 | O=C(c1cc(Cc2n[nH]c(=O)c3ccccc23)ccc1F)N1CCN(C(=O)C2CCCO2)CC1 (configuration not stated) |  | 39.4 | solubility at 24 h [9]: 980 µg/mL (≈ 2110 µM)
29 | O=C(c1cc(Cc2n[nH]c(=O)c3ccccc23)ccc1F)N1CCNCC1 | 5 | 8.6 | 
30 | O=C(c1cc(Cc2n[nH]c(=O)c3ccccc23)ccc1F)N1CCN(c2ccccc2)CC1 |  | 5.2 | concentration at 0.5 h [3]: 700 ng/mL; concentration at 1 h [4]: 310 ng/mL
31 | O=C(c1cccc(Cc2n[nH]c(=O)c3ccccc23)c1)N1CCN(c2ccccc2)CC1 | 51 |  | 
32 | Cn1nnc2c(C(N)=O)ncn2c1=O [TEMOZOLOMIDE] |  |  | Time [10]: 44 days; Activity [11]: 6%
33 | CCS(=O)(=O)N1CCN(C(=O)c2cccc(Cc3n[nH]c(=O)c4ccccc34)c2)CC1 | 12 | 4.6 | 
34 | O=C(c1cc(Cc2n[nH]c(=O)c3ccccc23)ccc1F)N1CCN(CCO)CC1 | 12 | 3.3 | 
35 | CCS(=O)(=O)N1CCCN(C(=O)c2cccc(Cc3n[nH]c(=O)c4ccccc34)c2)CC1 | 23 | 1.4 | 
36 | O=C(c1cc(Cc2n[nH]c(=O)c3ccccc23)ccc1F)N1CCN(C(=O)C2CC2)CC1 [OLAPARIB] |  | 25.8 | concentration at 0.5 h [3]: 230 ng/mL; concentration at 1 h [4]: 590 ng/mL; half-life [5]: 53 min; AUC [6]: 304 µg/min/mL; Vd [7]: 1.18 L/kg; bioavailability [8]: 100%; half-life [12]: 170 min; clearance [13]: 5.4 mL/min/kg; AUC [14]: 511 µg/min/mL; Vd [15]: 1.3 L/kg; bioavailability [16]: 100%; Activity [17]: Dose-dependent effect; Activity [18]: Active; Activity [19]: Active
37 | O=C(c1cccc(Cc2n[nH]c(=O)c3ccccc23)c1)N1CCN(CCO)CC1 | 39 | 1.8 | 
38 | CC(=O)N1CCN(C(=O)c2cc(Cc3n[nH]c(=O)c4ccccc34)ccc2F)CC1 | 6 | 7.97 | 
39 | O=C(c1cc(Cc2n[nH]c(=O)c3ccccc23)ccc1F)N1CCN(c2ccccn2)CC1 | 2 | >40 | 
